Measurements published in US8822517B2, “Arylosulfonamides for the treatment of CNS diseases” (Adamed SP. Z O.O., priority 2010, dated 2014).
Read-outs that look alike come from different tables or passages of the source.

What was measured:
[1] = biological target: T1, serotoninergic receptor 5-HT2C (Homo sapiens, UniProt P28335); experiment: Binding assay 5-HT2C (h), [3H]mesulergine, HEK-293 cells; details: read-out: 5-HT2C [%]
T1 construct: expressed in transfected cells; host or cells: HEK-293 cells
T1 sequence (P28335 33-458): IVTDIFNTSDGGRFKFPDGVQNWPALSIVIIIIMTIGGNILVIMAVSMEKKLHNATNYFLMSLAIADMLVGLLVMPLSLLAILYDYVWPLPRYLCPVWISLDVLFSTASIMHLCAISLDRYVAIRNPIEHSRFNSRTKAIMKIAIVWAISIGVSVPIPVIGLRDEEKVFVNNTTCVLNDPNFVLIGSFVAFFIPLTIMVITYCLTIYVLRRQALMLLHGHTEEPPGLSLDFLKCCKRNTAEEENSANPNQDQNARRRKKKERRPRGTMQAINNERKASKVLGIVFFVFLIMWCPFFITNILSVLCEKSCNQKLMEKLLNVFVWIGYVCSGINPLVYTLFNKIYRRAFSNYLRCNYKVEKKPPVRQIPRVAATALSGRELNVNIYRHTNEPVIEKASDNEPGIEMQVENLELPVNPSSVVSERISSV
In short: (§1)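 Radioligand displacement with compounds at 1×10^−6 M, detected by scintillation counting. Specific binding taken as total minus non-specific binding measured with excess unlabelled ligand.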

[2] = biological target: T2, adrenergic α2C receptor (Homo sapiens, UniProt P18825); experiment: Binding assay α2C (h), [3H]RX 821002, CHO cells; design: expressed in transfected cells; host or cells: CHO cells; details: read-out: α2C [%]
T2 sequence (P18825 1-462): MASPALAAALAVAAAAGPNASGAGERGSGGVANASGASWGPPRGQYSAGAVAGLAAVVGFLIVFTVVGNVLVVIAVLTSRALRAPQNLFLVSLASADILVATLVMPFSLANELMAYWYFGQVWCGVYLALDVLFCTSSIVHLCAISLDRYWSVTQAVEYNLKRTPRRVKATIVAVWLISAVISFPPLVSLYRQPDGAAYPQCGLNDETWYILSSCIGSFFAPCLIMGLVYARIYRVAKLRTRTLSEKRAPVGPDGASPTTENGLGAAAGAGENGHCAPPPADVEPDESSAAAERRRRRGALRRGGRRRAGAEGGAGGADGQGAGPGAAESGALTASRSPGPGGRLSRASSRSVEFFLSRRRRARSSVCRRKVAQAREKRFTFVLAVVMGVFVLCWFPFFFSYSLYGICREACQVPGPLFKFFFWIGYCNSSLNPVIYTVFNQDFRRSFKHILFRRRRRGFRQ
In short: as §1

[3] = biological target: T3, dopaminergic D2 receptor (Homo sapiens, UniProt P14416); experiment: Binding assay D2S (h), [3H]methyl-spiperone, HEK-293 cells; design: expressed in transfected cells; host or cells: HEK-293 cells; details: read-out: D2 [%]
In short: as §1
Target sequence in this assay (P14416 1-414 isoform P14416-2): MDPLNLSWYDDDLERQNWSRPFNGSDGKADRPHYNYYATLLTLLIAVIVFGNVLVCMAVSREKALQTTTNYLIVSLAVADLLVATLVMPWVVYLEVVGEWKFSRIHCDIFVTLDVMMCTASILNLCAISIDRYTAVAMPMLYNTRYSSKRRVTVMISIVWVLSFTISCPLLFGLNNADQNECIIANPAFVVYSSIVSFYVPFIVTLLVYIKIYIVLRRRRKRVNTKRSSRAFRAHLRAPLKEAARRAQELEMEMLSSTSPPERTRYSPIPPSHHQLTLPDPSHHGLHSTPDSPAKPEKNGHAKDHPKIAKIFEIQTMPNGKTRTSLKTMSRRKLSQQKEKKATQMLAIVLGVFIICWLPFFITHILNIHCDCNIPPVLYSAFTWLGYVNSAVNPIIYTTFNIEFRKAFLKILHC

[4] = biological target: T4, serotoninergic 5-HT2A receptor (Homo sapiens, UniProt P28223); experiment: Cellular functional assay, serotoninergic 5-HT2A receptor (agonism/antagonism); format: cell-based
T4 sequence (P28223 whole entry): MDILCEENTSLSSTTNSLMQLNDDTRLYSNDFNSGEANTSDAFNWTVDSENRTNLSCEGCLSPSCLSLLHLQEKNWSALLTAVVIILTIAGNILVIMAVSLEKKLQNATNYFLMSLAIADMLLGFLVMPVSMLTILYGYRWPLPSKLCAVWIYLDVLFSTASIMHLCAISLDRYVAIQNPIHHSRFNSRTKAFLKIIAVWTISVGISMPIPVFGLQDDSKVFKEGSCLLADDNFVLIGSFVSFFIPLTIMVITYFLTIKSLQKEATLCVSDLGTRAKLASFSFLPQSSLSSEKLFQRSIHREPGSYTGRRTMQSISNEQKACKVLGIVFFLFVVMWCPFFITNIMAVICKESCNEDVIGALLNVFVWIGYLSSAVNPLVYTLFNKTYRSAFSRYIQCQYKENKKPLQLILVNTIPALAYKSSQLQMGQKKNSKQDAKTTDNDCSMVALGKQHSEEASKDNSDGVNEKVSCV
Protocol: […]. The compounds were tested at the concentration of 1×10^−6M.
Conditions and methodology (by reference to the literature) of cellular functional assays are given in Table 13 and the tests results for representative compounds are given in Table 14 (dopaminergic receptor D2), in Table 15 (dopaminergic receptor D3), in Table 16 (serotoninergic receptor 5-HT1A), in Table 17 (serotoninergic receptor 5-HT2A), in Table 18 (serotoninergic receptor 5-HT6), in Table 19 (serotoninergic receptor 5-HT7), in Table 20 (adrenergic α1 receptor), in Table 21 (adrenergic α2C receptor), in Table 22 (histaminergic H1 receptor) and in Table 23 (serotoninergic 5-HT2C receptor). In the Tables ag refers to agonism, and antag to antagonism).

[5] = test system: sigma σ receptor; experiment: Binding assay σ (non-selective), [3H]DTG, rat cerebral cortex; details: percent inhibition of control specific binding; compounds tested at 1×10^−6 M
In short: as §1

[6] = biological target: T5, serotoninergic 5-HT6 receptor (Homo sapiens, UniProt P50406); experiment: Binding assay 5-HT6 (h), [3H]LSD, CHO cells; design: expressed in transfected cells; host or cells: CHO cells; details: read-out: 5-HT6
T5 sequence (P50406 whole entry): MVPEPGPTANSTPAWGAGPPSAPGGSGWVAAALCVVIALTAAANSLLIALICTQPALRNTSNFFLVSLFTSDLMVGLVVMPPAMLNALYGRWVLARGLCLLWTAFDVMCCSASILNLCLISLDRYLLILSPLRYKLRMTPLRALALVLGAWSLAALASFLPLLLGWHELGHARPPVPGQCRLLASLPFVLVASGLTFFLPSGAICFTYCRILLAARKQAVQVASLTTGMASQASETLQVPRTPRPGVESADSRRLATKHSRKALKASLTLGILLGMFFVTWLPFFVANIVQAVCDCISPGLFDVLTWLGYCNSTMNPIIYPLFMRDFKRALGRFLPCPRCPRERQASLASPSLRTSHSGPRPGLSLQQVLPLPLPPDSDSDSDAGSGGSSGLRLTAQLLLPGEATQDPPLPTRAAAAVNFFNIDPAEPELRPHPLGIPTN
In short: as §1

[7] = biological target: dopaminergic D3 receptor (Homo sapiens, UniProt P35462); experiment: Binding assay D3 (h), [3H]methyl-spiperone, CHO cells; design: expressed in transfected cells; host or cells: CHO cells; details: read-out: D3 [%]
dopaminergic D3 receptor, sequence (P35462 whole entry): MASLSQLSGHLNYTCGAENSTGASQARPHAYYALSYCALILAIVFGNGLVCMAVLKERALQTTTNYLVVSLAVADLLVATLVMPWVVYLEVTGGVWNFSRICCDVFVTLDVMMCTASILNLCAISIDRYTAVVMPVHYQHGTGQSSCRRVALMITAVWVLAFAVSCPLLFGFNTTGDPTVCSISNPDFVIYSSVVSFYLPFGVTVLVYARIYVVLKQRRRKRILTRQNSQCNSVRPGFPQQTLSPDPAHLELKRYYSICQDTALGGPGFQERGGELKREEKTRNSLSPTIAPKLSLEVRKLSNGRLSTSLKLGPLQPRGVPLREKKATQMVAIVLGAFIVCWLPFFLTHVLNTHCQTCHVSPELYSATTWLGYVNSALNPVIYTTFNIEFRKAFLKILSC
In short: as §1

[8] = biological target: T5, serotoninergic 5-HT6 receptor; experiment: Cellular functional assay, serotoninergic 5-HT6 receptor (agonism/antagonism); format: cell-based; details: for activation at 1 µM: agonist effect, percent of control specific agonist response, compounds tested at 1×10^−6M, read-out: 5-HT6-ag [%]; for inhibition at 1 µM: read-out: 5-HT6-antag. [%]
Protocol: (§2) The compounds were tested at the concentration of 1×10^−6M.
(§3) In the Tables ag refers to agonism, and antag to antagonism).

[9] = biological target: T6, serotoninergic 5-HT7 receptor (Homo sapiens, UniProt P34969); experiment: Binding assay 5-HT7 (h), [3H]LSD, CHO cells; design: expressed in transfected cells; host or cells: CHO cells; details: read-out: 5-HT7
T6 sequence (P34969 whole entry): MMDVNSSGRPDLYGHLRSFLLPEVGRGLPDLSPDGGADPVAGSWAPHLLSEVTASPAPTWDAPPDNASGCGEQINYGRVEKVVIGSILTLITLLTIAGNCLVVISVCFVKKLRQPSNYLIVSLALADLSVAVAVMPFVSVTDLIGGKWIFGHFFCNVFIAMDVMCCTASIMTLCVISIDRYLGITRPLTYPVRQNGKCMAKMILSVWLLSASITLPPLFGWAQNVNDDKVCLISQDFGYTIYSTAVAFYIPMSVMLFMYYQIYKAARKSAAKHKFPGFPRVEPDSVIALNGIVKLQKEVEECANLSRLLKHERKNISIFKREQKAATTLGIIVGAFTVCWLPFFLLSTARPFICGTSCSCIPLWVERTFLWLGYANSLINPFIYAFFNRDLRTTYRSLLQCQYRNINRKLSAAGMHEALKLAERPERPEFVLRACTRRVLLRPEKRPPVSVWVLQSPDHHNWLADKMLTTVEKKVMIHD
In short: as §1

[10] = biological target: T6, serotoninergic 5-HT7 receptor; experiment: Cellular functional assay, serotoninergic 5-HT7 receptor (agonism/antagonism); format: cell-based; details: for activation at 1 µM: agonist effect, percent of control specific agonist response, compounds tested at 1×10^−6M, read-out: 5-HT7-ag [%]; for inhibition at 1 µM: read-out: 5-HT7-antag. [%]
Protocol: as §2, §3

[11] = biological target: T7, muscarinic M3 receptor (Homo sapiens, UniProt P20309); experiment: Binding assay M3 (h), [3H]4-DAMP, CHO cells; details: read-out: M3 [%]
T7 construct: expressed in transfected cells; host or cells: CHO cells
T7 sequence (P20309 whole entry): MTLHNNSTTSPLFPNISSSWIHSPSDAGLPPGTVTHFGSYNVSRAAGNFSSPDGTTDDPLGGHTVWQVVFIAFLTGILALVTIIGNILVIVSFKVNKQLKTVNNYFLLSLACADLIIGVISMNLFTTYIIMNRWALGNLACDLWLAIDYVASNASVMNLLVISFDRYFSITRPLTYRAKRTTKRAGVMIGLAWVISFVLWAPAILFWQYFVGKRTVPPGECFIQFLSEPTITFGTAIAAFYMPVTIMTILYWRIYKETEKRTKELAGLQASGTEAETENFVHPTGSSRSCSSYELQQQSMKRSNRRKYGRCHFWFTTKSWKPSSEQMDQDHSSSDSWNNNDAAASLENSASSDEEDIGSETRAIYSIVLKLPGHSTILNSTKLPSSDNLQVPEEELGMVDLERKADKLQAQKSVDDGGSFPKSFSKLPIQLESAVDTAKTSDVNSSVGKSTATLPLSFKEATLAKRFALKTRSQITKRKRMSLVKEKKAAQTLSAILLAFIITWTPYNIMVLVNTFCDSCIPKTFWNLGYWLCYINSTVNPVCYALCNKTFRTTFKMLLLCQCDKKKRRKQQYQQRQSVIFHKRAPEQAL
In short: as §1

[12] = test system: adrenergic α1 receptor; experiment: Binding assay α1 (non-selective), [3H]prazosin, rat cerebral cortex; details: percent inhibition of control specific binding; compounds tested at 1×10^−6 M
In short: as §1

[13] = biological target: T8, serotoninergic 5-HT1A receptor (Homo sapiens, UniProt P08908); experiment: Binding assay 5-HT1A (h), [3H]8-OH-DPAT, HEK-293 cells; design: expressed in transfected cells; host or cells: HEK-293 cells; details: read-out: 5-HT1A
T8 sequence (P08908 1-422): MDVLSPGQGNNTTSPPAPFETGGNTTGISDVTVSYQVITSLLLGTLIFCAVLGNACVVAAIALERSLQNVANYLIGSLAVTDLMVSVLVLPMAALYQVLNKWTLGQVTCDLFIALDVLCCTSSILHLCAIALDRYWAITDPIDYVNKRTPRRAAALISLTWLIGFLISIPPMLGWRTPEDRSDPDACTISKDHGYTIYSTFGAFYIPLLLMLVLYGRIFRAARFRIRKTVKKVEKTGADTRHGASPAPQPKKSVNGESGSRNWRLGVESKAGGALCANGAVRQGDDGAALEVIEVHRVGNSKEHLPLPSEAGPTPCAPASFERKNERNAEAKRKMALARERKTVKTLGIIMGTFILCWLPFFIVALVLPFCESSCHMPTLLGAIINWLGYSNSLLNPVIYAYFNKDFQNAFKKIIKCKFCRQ
In short: as §1

[14] = biological target: T9, serotonine transporter (SERT) receptor (Homo sapiens, UniProt P31645); experiment: Binding assay SERT (h), [3H]imipramine, CHO cells; details: read-out: SERT [%]
T9 construct: expressed in transfected cells; host or cells: CHO cells
T9 sequence (P31645 whole entry): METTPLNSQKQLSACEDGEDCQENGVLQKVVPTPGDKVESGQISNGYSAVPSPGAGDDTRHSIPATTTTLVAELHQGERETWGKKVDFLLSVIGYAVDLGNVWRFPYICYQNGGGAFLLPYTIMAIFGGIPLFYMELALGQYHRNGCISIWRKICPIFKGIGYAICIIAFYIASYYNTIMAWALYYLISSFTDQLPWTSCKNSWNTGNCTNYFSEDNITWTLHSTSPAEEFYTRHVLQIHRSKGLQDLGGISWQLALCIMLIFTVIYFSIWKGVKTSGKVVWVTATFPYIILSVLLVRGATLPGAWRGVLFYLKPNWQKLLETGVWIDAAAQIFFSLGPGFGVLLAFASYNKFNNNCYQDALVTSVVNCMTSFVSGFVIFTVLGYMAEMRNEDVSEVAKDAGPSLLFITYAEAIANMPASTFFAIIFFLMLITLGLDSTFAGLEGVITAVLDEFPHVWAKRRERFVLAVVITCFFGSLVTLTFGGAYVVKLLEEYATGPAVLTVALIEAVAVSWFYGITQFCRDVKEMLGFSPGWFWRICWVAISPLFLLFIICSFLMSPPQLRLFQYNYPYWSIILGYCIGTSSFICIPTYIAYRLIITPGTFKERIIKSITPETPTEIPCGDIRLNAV
In short: as §1

[15] = biological target: T3, dopaminergic D2 receptor; experiment: Cellular functional assay, dopaminergic D2 receptor (agonism/antagonism); format: cell-based; details: for inhibition at 1 µM: read-out: D2-antag. [%]
Protocol: as §2, §3
Target sequence in this assay (P14416 whole entry): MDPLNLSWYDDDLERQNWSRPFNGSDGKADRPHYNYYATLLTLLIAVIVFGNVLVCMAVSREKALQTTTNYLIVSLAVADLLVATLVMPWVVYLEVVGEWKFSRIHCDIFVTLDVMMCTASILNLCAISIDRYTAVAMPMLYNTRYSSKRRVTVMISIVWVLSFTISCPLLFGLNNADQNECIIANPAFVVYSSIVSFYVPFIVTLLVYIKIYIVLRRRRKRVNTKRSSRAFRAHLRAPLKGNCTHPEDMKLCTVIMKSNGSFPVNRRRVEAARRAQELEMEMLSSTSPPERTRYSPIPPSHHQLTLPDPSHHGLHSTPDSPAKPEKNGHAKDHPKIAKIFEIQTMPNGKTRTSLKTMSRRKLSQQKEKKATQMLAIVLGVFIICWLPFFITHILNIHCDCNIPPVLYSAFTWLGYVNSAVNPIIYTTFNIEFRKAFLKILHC

[16] = biological target: histaminergic H1 receptor (Homo sapiens, UniProt P35367); experiment: Binding assay H1 (h), [3H]pyrilamine, HEK-293 cells; design: expressed in transfected cells; host or cells: HEK-293 cells; details: read-out: H1 [%]
histaminergic H1 receptor, sequence (P35367 whole entry): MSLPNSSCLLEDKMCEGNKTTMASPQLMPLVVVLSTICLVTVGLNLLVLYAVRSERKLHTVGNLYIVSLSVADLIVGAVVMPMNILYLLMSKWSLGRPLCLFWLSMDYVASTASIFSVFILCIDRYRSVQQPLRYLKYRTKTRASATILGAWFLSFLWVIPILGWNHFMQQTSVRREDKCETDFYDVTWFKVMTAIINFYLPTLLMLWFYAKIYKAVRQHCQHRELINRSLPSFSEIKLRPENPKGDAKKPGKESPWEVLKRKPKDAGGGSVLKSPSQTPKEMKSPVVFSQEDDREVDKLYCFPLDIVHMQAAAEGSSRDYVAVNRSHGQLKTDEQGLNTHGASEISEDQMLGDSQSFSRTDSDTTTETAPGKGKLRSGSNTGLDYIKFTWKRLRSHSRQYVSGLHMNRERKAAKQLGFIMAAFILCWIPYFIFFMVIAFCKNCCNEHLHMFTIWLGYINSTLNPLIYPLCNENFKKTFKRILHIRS
In short: as §1

[17] = biological target: T4, serotoninergic 5-HT2A receptor; experiment: Binding assay 5-HT2A (h), [3H]ketanserin, HEK-293 cells; design: expressed in transfected cells; host or cells: HEK-293 cells; details: read-out: 5-HT2A
In short: as §1

[18] = biological target: T8, serotoninergic 5-HT1A receptor; experiment: Cellular functional assay, serotoninergic 5-HT1A receptor (agonism/antagonism); format: cell-based; details: for inhibition at 1 µM: CHO, read-out: 5-HT1A-antag. [%]; for activation at 1 µM: agonist effect, percent of control specific agonist response (100 nM 8-OH-DPAT for control), 1×10^−6 M, 5-HT1A (h), CHO cells, read-out: 5-HT1A-ag [%]
Protocol: as §2, §3

[19] = HEK293, agonist effect, percent of control specific agonist response (3 μM dopamine for control), 1×10^−6 M, D2S (h), HEK-293 cells, read-out: D2-ag [%]

Row | Compound | inhibition at 1 µM [1] | inhibition at 1 µM [2] | inhibition at 1 µM [3] | σ [%] [5] | inhibition at 1 µM [6] | inhibition at 1 µM [7] | activation at 1 µM [8] | inhibition at 1 µM [8] | inhibition at 1 µM [9] | activation at 1 µM [10] | inhibition at 1 µM [10] | inhibition at 1 µM [11] | α1 [%] [12] | inhibition at 1 µM [13] | inhibition at 1 µM [14] | activation at 1 µM [15, 19] | inhibition at 1 µM ([15]; HEK293) | inhibition at 1 µM [16] | inhibition at 1 µM [17] | inhibition at 1 µM [18] | also measured
1 | Cc1cccc(S(=O)(=O)NCCCCN2CCN(c3noc4ccccc34)CC2)c1 [Compound 15, N-(4-(4-(1,2-Benzoxazol-3-yl)piperazin-1-yl)butyl)-3-methylbenzenesulphonamide] | 23% | 98% | 90% | 47% | 71% | 88% | 2% | 21% | 100% | 0% | 96% | -9% | 102% | 86% | -3% | 2% | 88% | 84% | 99% |  | activation at 1 µM ([4]; read-out: 5-HT2A -ag [%]): -1%; inhibition at 1 µM ([4]; read-out: 5-HT2A -antag [%]): 100%
2 | O=S(=O)(NCCN1CCC(c2noc3cc(F)ccc23)CC1)c1ccc2ccccc2c1 [Compound 24, N-[2-[4-(6-Fluoro-1,2-benzoxazol-3-yl)piperidin-1-yl]ethyl]naphthalene-2-sulphonamide] | 65% | 99% | 99% | 80% | 76% | 98% | 2% | 9% | 95% | 0% | 99% | 10% | 97% | 80% | 53% |  |  | 56% | 100% |  | 
3 | Cc1cccc(S(=O)(=O)NCCN2CCC(c3noc4cc(F)ccc34)CC2)c1 [Compound 25, N-[2-[4-(6-Fluoro-1,2-benzoxazol-3-yl)piperidin-1-yl]ethyl]-3-methylbenzenesulphonamide] | 32% | 98% | 96% | 76% | 71% | 94% | 0% | 6% | 98% | -1% | 97% | 6% | 98% | 92% | 20% |  |  | 62% | 100% |  | 
4 | O=S(=O)(NCCCCN1CCN(c2cccc3[nH]ccc23)CC1)c1ccc(F)c(F)c1 [Compound 29, 3,4-Difluoro-N-{4-[4-(1H-indol-4-yl)piperazin-1-yl]butyl}benzenesulphonamide] | 11% | 98% | 94% | 93% | 37% | 98% |  |  | 91% | 5% | 9% | 25% | 99% | 99% | 12% | 45% | 99% | 74% | 64% | 26% | activation at 1 µM [18]: 71%
5 | O=S(=O)(NCCCCN1CCN(c2cccc3[nH]ccc23)CC1)c1csc2ccccc12 [Compound 32, N-{4-[4-(1H-Indol-4-yl)piperazin-1-yl]butyl}-1-benzothiophene-3-sulphonamide] |  |  | 101% |  | 23% |  |  |  |  |  |  |  |  |  |  | 35% | 89% |  |  |  | 
6 | Cc1[nH]c2ccc(Cl)cc2c1C1=CCN(CCNS(=O)(=O)c2cccc(Cl)c2)CC1 [Compound 452, 3-Chloro-N-[2-[4-(5-chloro-2-methyl-1H-indol-3-yl)-3,6-dihydro-2H-pyridin-1-yl]ethyl]-benzenesulphonamide] |  |  | 42% |  | 108% | 14% |  |  | 41% |  |  |  | 14% |  | 18% |  | 53% |  |  | 7% | activation at 1 µM [18]: 30%; activation at 1 µM ([15]; HEK293, read-out: D2-ag [%]): 24%
